Paper PMC4305287, “Two Novel α7 Nicotinic Acetylcholine Receptor Ligands: In Vitro Properties and Their Efficacy in Collagen-Induced Arthritis in Mice” (PLoS ONE, 2015)
Values joined by “and” are separate entries in the source; they are usually repeats but may differ in a detail not shown here. Identical values can stand only once. “Also recorded” adds a separate entry of the source.

Experiments:
[1] = target: T1, α1β1 nAChR (muscle receptor) (Homo sapiens, UniProt P02708+P07510+P11230+Q07001); assay: α-bungarotoxin binding to TE671 cell membranes
T1 construct: host or cells: TE671 cell membranes
Protocol: (§1) Broad selectivity was assessed at Cerep (Celle l’ Evescault, France), as described in the Cerep catalog, though the determination of the effect of PMP-311 and PMP-072 in in vitro radioligand receptor binding assays with 52 different receptors, channels, and transporters. The specific ligand binding to the receptors is defined as the difference between the total binding, and the nonspecific binding determined in the presence of an excess of unlabelled ligand. The results are expressed as a percent of control specific binding and as the mean percent inhibition of control specific binding obtained in the presence of 10 μM PMP-311 and PMP-072. Individual and mean values are presented in the results section. The IC50 values (concentration causing a half-maximal inhibition of control specific binding) and Hill coefficients (nH) were determined by non-linear regression as described above.

[2] = pharmacokinetics in CD1 mice; assay type: in vivo, mouse; conditions: for Kp at 30 min: CD1, mouse, brain, read-out: Brain penetration; for Kp at 30 min / Brain penetration: relative to plasma level 30 min after 1 mg/kg IV; for bioavailability: read-out: %F (bioavailability)
Protocol: Pharmacokinetic studies were carried out at Cerep using non-cannulated, non-fasted CD1 mice (Charles River Laboratories, Wilmington, MA). PMP-311 or PMP-072 were formulated in phosphate buffered saline (PBS), pH 7.4, as a clear solution and 1 mg/kg was administered by bolus intravenous (IV) injection or 5 mg/kg by oral gavage. Plasma samples were obtained from 3 mice per time point at 15, 30, 60, 120, 240, 360, 480 and 1440 min post-dose. The plasma samples were processed using acetonitrile precipitation and analyzed by HPLC-MS or HPLC-MS/MS to determine the concentration of drug as compared to a plasma calibration curve (aliquots of drug-free plasma were spiked with the test compound at the specified concentration levels and processed together with the unknown plasma samples using the same procedure). The processed plasma samples were stored frozen (−20°C) until the HPLC-MS/MS analysis. Peak areas were recorded, and the concentrations of the test compound in the unknown plasma samples were determined using the respective calibration curve. The reportable linear range of the assay was determined, along with the lower limit of quantitation (LLQ).
Plots of plasma concentration of compound versus time were constructed. The fundamental pharmacokinetic parameters of compound after oral and IV dosing (Cmax: maximum concentration, Tmax: time to maximum concentration, T1/2: terminal elimination half-life, AUC: area under the curve, CI: clearance, Vd: volume of distribution, and %F: bioavailability) were obtained from the non-compartmental analysis of the plasma data using WinNonlin (Pharsight, St. Louis, MO).

[3] = tested on: collagen-induced arthritis; assay: collagen-induced arthritis in DBA/1 mice; conditions: for disease incidence and onset: 5 mg/kg oral daily day 20-34
Protocol: Collagen-induced arthritis was induced and evaluated as previously described. The severity of arthritis was assessed using an established semiquantitative scoring system (0–4; 0 = normal, 1 = swelling in 1 joint, 2 = swelling in >1 joint, 3 = swelling in the entire paw, and 4 = deformity and/or ankylosis. The cumulative score for all 4 paws of each mouse was used to represent overall disease severity and progression. Hind paw ankle joint thickness was measured using a caliper For the evaluation of incidence, mice were considered to have arthritis if the arthritis score increased by at least 1 point for 2 or more following days.
In study 1, we evaluated the role of the two novel α7nAChR-specific modulators in CIA. The receptors were stimulated by oral gavage of PMP-311 (5 mg/kg; n = 15) or PMP-072 (5 mg/kg; n = 17). The compounds were administered once a day from day 20 until the end of the experiment (day 34). Control mice received saline. In study 2, we evaluated the anti-inflammatory effects of different dosages of the α7nAChR-specific agonists. PMP-311 (2 or 10 mg/kg; n = 15) and PMP-072 (10 or 20 mg/kg; n = 15) were administered in the same way as in study 1. In both studies, mice were inspected daily for signs of arthritis and thickness of hind paws was measured using a caliper from day 16 till sacrifice by 2 independent observers (MAvM and JK) who were not aware of the treatment.
Hind paws were used for radiographic evaluation. Joint destruction was scored on a scale of 0–4, where 0 = no damage, 1 = demineralization, 2 = 1 or 2 erosions, 3 = severe erosions, and 4 = complete destruction of the joints. The radiographs were scored by 2 independent observers (MAvM and MJV) in a blinded manner; minor differences in scoring between the observers were resolved by mutual agreement.
Hind paws were fixed for 24 hours in 10% buffered formalin and decalcified in 15% EDTA. The paws were then embedded in paraffin, and serial 5 μm sagittal sections of whole hind paws were cut and stained with hematoxylin and eosin (HE). Two independent observers (MAvM and MJV) assessed the tissue for the degree of synovitis by microscopic evaluation, under blinded conditions, as described previously. Synovitis was graded on a scale of 0 (no inflammation) to 3 (severely inflamed joint) based on the extent of infiltration of inflammatory cells into the synovium.
To evaluate the effects of different treatments, we determined the change in clinical arthritis scores in each mouse from the start of treatment until the end of the experiment. AUC for the change in arthritis scores were calculated. The significance of the differences in the mean changes in scores (clinical, radiologic and histologic) between groups was determined by Kruskal-Wallis test followed by Mann-Whitney U test (SPSS version 12.0.2; SPSS, Chicago, IL). Incidence was compared using Kaplan-Meier survival analysis (GraphPad Prism). P values less than 0.05 were considered statistically significant.

[4] = target: T2, human serotonin transporter (Homo sapiens, UniProt P31645); assay: Cerep broad selectivity radioligand binding panel
T2 construct: Cerep
Protocol: as §1

[5] = CD1, plasma, mouse, 5 mg/kg oral
[6] = study 1, 5 mg/kg oral daily day 20-34

T2 sequence (P31645 whole entry): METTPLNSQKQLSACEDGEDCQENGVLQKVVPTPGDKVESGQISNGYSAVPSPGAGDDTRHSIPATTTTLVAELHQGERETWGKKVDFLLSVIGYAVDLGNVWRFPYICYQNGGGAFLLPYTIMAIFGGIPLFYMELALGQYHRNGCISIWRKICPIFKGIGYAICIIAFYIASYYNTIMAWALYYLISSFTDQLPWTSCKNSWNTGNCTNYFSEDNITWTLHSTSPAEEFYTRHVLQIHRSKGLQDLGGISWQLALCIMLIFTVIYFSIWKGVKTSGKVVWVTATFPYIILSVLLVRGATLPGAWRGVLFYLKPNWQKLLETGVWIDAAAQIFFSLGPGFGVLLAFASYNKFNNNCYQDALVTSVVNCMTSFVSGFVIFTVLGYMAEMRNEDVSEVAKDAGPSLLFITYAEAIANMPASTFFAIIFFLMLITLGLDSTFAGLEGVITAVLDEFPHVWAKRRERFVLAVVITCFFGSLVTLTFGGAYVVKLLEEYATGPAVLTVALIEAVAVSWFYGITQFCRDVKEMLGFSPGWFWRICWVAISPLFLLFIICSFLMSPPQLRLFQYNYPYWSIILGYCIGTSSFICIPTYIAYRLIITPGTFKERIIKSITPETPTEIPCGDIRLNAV
T1 sequence (P02708 21-457): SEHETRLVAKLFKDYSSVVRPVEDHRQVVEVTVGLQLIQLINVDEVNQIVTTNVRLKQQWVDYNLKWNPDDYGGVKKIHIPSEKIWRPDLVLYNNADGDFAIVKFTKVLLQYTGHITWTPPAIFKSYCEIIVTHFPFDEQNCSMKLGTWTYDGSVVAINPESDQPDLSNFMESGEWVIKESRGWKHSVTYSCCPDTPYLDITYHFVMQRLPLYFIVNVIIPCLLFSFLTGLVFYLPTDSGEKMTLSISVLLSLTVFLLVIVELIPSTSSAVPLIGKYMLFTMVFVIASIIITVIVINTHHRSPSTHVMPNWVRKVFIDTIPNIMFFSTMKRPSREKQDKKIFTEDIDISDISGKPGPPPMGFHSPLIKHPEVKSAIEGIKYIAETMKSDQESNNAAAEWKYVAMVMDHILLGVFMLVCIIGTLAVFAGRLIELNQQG
T1 sequence (Q07001 22-517): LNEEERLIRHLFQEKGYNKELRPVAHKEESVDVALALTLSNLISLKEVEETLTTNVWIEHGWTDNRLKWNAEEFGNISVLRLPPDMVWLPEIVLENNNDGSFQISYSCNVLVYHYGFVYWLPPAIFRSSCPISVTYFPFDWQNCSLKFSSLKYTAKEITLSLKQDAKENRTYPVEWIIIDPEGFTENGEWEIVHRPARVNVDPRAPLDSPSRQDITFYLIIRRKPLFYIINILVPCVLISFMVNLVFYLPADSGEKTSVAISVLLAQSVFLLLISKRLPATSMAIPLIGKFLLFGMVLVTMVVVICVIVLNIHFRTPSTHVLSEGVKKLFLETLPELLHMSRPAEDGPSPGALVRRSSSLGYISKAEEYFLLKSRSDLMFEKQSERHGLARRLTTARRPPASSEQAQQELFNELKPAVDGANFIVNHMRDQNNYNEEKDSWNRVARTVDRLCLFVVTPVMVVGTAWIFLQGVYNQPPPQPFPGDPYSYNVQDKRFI
T1 sequence (P07510 23-517): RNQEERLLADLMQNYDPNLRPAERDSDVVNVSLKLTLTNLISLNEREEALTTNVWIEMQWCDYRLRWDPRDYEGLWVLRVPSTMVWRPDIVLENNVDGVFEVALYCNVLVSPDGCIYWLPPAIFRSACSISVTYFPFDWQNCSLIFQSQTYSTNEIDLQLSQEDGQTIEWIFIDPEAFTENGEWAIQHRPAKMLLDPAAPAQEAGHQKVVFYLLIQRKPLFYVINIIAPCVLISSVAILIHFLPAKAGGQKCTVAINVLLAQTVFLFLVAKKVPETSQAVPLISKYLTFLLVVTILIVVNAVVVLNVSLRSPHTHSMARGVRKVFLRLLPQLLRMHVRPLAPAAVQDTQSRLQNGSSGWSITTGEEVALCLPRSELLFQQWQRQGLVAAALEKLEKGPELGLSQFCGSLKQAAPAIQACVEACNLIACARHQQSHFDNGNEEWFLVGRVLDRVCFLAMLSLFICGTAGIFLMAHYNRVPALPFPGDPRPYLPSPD
T1 sequence (P11230 24-501): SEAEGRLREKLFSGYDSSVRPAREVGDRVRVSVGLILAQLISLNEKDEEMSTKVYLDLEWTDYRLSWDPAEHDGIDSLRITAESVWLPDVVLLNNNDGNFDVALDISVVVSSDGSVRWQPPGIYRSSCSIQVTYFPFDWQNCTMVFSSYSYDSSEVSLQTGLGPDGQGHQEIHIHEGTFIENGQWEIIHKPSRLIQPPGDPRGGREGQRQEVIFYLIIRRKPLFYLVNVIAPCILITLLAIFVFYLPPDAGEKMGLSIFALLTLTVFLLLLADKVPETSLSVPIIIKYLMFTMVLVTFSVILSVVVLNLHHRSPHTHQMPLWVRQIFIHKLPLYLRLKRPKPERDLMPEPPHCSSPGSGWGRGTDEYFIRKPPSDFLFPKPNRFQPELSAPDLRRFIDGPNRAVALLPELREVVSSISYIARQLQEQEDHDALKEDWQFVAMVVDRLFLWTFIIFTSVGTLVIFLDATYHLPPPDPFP

| SMILES | Ki [1] [µM] | Kp at 30 min [2] | Vd ([2]; CD1, plasma, mouse, 1 mg/kg IV) [L/kg] | half-life ([2]; CD1, plasma, mouse, 1 mg/kg IV) [min] | AUC [2, 5] [µg·h/mL] | Cmax [2, 5] | Tmax [2, 5] [min] | bioavailability [2, 5] [%] | Brain penetration [2] [%] | effect on arthritis activity ([3]; 5 mg/kg oral daily) | joint destruction (radiographic score) ([3]; 5 mg/kg oral daily) | disease incidence and onset [3] | joint destruction (radiographic score) ([3]; 10 mg/kg oral daily) | reduction in arthritis score compared to saline ([3]; 10 mg/kg oral daily) [%] | other results |
| --- | --- | --- | --- | --- | --- | --- | --- | --- | --- | --- | --- | --- | --- | --- | --- |
| c1cncc(OC[C@@H]2CNCCN2c2nc3ncccc3o2)c1 [PMP-311, (S)-2-(2-((Pyridin-3-yloxy)methyl)piperazin-1-yl)oxazolo[4,5-b]pyridine] | > 100 | 0.44 | 1.94 | 19 | 0.567 | 787 ng/mL and 2.5 µM | 15 | 50 | 44 | amelioration of clinical signs of arthritis | significant reduction in joint destruction | reduced disease incidence and delayed onset of disease | significantly decreased | 39 | clearance ([2]; CD1, plasma, mouse, 1 mg/kg IV): 4.32 L/h/kg; half-life [2, 5]: 98 min; joint destruction (radiographic score) ([3]; 2 mg/kg oral daily): significant reduction in joint destruction; mice that developed arthritis ([3]; 2 mg/kg oral daily): 14 out of 15; paw swelling ([3]; 2 mg/kg oral daily): decreased; reduction in arthritis score compared to saline ([3]; 2 mg/kg oral daily): 40%; synovial inflammation ([3]; 2 mg/kg oral daily): significant reduction; animals that did not develop arthritis ([3]; 5 mg/kg oral daily): six out of 15; synovial inflammation (HE staining of knee joints) ([3]; 5 mg/kg oral daily): significant reduction of synovial inflammation; reduction in clinical score compared to saline ([3]; 5 mg/kg oral daily, dose-response comparison): 49%; decrease in paw swelling compared to saline-treated mice [3, 6]: 39%; decrease of AUC of clinical score compared to control mice [3, 6]: 51%; inhibition at 10 µM ([4]; 10 μM): 72% |
| COc1ccc(NC(=O)N2CCNC[C@@H]2COc2cccnc2)cc1 [PMP-072, (R)-N-(4-methoxyphenyl)-2-((pyridin-3-yloxy)methyl)piperazine-1-carboxamide] | > 100 | 0.06 | 5.83 | 39 | 0.588 | 324 ng/mL and 940 nM | 30 | 76 | 6 | did not significantly ameliorate arthritis activity; also recorded: trend towards improvement | did not reduce bone degradation | trend towards reduced incidence of disease | trend towards reduced joint destruction | 48 | Cl ([2]; mouse, 1 mg/kg IV): 6.18 L/h/kg; T1/2 ([2]; mouse, 5 mg/kg oral): 104 min; paw swelling ([3]; 10 mg/kg oral daily): decrease in paw swelling; synovial inflammation (synovitis score) ([3]; 10 mg/kg oral daily): significantly lower scores for synovitis; effect on arthritis score ([3]; 20 mg/kg oral daily): no improvement; tolerability of treatment [3, 6]: tolerated the drug treatment well; tolerability of treatment ([3]; study 2, PMP-311 2 and 10 mg/kg, PMP-072 10 and 20 mg/kg): tolerated the drug treatments well; Ki [4]: 1.8 µM |
